Data on 5 compounds can be found in PMC6864482, “Novel C7-Substituted Coumarins as Selective Monoamine Oxidase Inhibitors: Discovery, Synthesis and Theoretical Simulation” (Molecules, 2019).

In one series the target is T1, hMAO-A (Homo sapiens, UniProt P21397).
T1 sequence (P21397 1-527): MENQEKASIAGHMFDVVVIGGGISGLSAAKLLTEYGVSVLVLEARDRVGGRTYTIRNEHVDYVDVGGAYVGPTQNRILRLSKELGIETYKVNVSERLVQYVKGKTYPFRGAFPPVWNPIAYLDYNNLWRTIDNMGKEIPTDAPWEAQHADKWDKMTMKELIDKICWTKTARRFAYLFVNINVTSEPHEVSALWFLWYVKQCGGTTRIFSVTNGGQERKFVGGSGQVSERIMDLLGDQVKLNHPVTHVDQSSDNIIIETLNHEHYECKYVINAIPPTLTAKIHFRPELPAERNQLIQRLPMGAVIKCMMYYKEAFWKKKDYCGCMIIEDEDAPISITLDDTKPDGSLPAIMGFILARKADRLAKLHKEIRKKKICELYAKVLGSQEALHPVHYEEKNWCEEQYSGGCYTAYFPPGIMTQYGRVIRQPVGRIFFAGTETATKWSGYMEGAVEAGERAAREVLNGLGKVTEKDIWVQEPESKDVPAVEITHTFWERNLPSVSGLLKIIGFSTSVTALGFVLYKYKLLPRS
As to conditions: previously identified BRS-3D hits, cited from earlier work; for MAO-A pIC50: pIC50 = −log(IC50); for IC50: read-out: MAO-A IC50.

The target of the next series is T2, hMAO-B (Homo sapiens, UniProt P27338).
T2 sequence (P27338 1-520): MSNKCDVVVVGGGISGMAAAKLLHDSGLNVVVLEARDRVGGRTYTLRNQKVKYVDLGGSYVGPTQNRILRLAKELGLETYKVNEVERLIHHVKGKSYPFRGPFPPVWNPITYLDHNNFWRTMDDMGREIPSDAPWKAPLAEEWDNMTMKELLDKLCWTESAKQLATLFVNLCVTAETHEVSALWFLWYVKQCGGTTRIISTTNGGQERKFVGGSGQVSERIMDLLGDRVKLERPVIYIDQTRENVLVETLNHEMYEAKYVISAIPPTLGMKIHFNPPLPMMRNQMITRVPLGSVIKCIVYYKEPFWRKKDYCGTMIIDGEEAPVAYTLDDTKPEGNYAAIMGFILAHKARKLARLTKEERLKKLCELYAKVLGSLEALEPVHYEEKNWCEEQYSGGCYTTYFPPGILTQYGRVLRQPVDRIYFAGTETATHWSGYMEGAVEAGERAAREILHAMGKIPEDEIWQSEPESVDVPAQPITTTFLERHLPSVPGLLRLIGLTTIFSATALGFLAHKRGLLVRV
As to conditions: previously identified BRS-3D hits, cited from earlier work; for MAO-B pIC50: pIC50 = −log(IC50); for IC50: read-out: MAO-B IC50.

Where two headings read alike, the source gives them in different places.

In the case of `CCCc1cc(=O)oc2cc(OCC(=O)N(C)C)ccc12` [M31], at hMAO-A, the “MAO-A Avg. Inh% at 10 uM” value is reported as 92%, the “MAO-A pIC50” value is listed as 6.3 and the half-maximal inhibitory concentration (IC50) (commonly the midpoint of a concentration-inhibition curve) was 500 nM. Besides, at hMAO-B, the “MAO-B Avg. Inh% at 10 uM” value is 16%, the “MAO-B pIC50” value is reported as 4.2 and the IC50 was 64600 nM.

On to `Cc1c(C)c2cc(Cl)c(OCC(=O)N(C)C)cc2oc1=O` [M32], for which, at hMAO-A, the “MAO-A Avg. Inh% at 10 uM” value was 12%, the “MAO-A pIC50” value is 4.1 and the 50% inhibitory concentration (IC50) was 81300 nM. Besides, on hMAO-B, the “MAO-B Avg. Inh% at 10 uM” value is 90%, the “MAO-B pIC50” value was 6.2 and the IC50 is 600 nM.

Take `Cc1cc(=O)oc2cc(OCC(=O)N(C)C)ccc12` [M33]: on hMAO-A, the “MAO-A Avg. Inh% at 10 uM” value was 41%. Moreover, the “MAO-B Avg. Inh% at 10 uM” value at hMAO-B was 8%.

Take `Cc1cc(=O)oc2cc(OCC(=O)N(C)C)c(Cl)cc12` [M34]: the “MAO-A Avg. Inh% at 10 uM” value on hMAO-A was 19%. Besides, on hMAO-B, the “MAO-B Avg. Inh% at 10 uM” value is listed as 40%.

Take `Cc1cc(=O)oc2cc(Oc3nnc(-c4ccccc4)s3)ccc12` [M43, 4-Methyl-7-((5-phenyl-1,3,4-thiadiazol-2-yl)oxy)-2H-chromen-2-one]: the melting point (as a rule, the temperature, or range, at which the solid turns liquid) lay in the range of 124 to 125 °C. Besides, on hMAO-A (listed as M43 (7a)), the “MAO-A pIC50” value is 6.8. In addition, at hMAO-A, the IC50 was 160 nM. Further, on hMAO-B, the “MAO-B Avg. Inh% at 10 uM” value is recorded as 96% and the IC50 is 360 nM. In addition, the “MAO-B pIC50” value on hMAO-B (listed as M43 (7a)) is 6.4.
